In the assay the target is GST-hRIPK1 (8-327) (Homo sapiens (Human), UniProt Q13546). Kind of assay: Fluorescent Polarization Binding (FP Binding) assay. Conditions: 10 nM GST-hRIPK1 (8-327), 5 nM fluorescent labeled ligand; read-out: FP IC50. Here is the method:
Fluorescent Polarization Binding (FP Binding) assay (Berger S. B. et al. […] Maki J. L. et al. […] Test Compounds were serially diluted in DMSO at 100 fold final concentrations in the assay (1% DMSO final). […] For negative control the enzyme addition was replaced by assay buffer only. After addition of 5 μL of fluorescent labeled ligand at twice the final concentrations in assay buffer, the plate was incubated at RT for 30 min.

pIC50: −log10 of the molar value.

Chain of GST-hRIPK1 (8-327) (Q13546 8-327): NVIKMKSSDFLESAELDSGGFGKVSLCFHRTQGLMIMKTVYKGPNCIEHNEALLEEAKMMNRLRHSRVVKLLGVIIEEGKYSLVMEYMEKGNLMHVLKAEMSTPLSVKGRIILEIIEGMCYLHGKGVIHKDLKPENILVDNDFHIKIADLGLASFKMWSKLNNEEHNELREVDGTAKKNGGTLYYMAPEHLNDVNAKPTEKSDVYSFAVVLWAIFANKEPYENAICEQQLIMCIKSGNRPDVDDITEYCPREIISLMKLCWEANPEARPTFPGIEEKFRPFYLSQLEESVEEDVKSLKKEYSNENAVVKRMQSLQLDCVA

For orientation: pIC50 means the negative decadic logarithm of the IC50, by convention in mol/L. Take `CN1C(=O)[C@@H](NC(=O)c2cc(Cc3ccccc3)[nH]n2)[C@H]2C[C@H]2c2cccnc21` [Example 80A, 5-benzyl-N-((1aS,2S,8bR)-4-methyl-3-oxo-1,1a,2,3,4,8b-hexahydrocyclopropa[d]pyrido[2,3-b]azepin-2-yl)-1H-pyrazole-3-carboxamide]: the negative logarithm of the IC50 (pIC50) is 6.00 to 10.00.

In the case of `CN1C(=O)[C@H](NC(=O)c2cc(Cc3ccccc3)[nH]n2)[C@@H]2C[C@@H]2c2cccnc21` [Example 80B, 5-benzyl-N-((1aR,2R,8bS)-4-methyl-3-oxo-1,1a,2,3,4,8b-hexahydrocyclopropa[d]pyrido[2,3-b]azepin-2-yl)-1H-pyrazole-3-carboxamide], the negative logarithm of the IC50 (pIC50) was under 5.52.

Regarding `CN1C(=O)[C@@H](NC(=O)c2cc(Cc3ccccc3)on2)[C@H]2C[C@H]2c2cccnc21` [Example 81A, 5-benzyl-N-((1aS,2S,8bR)-4-methyl-3-oxo-1,1a,2,3,4,8b-hexahydrocyclopropa[d]pyrido[2,3-b]azepin-2-yl)isoxazole-3-carboxamide], the pIC50 is 6.00 to 10.00.

With `CN1C(=O)[C@H](NC(=O)c2cc(Cc3ccccc3)on2)[C@@H]2C[C@@H]2c2cccnc21` [Example 81B, 5-benzyl-N-((1aR,2R,8bS)-4-methyl-3-oxo-1,1a,2,3,4,8b-hexahydrocyclopropa[d]pyrido[2,3-b]azepin-2-yl)isoxazole-3-carboxamide], the negative logarithm of the IC50 (pIC50) is under 5.52.

For `CN1C(=O)[C@@H](NC(=O)c2nn(Cc3ccccc3)cc2F)[C@H]2C[C@H]2c2cccnc21` [Example 82A, 1-benzyl-4-fluoro-N-((1aS,2S,8bR)-4-methyl-3-oxo-1,1a,2,3,4,8b-hexahydrocyclopropa[d]pyrido[2,3-b]azepin-2-yl)-1H-pyrazole-3-carboxamide], the negative logarithm of the IC50 (pIC50) is 6.00 to 10.00.

For `CN1C(=O)[C@H](NC(=O)c2nn(Cc3ccccc3)cc2F)[C@@H]2C[C@@H]2c2cccnc21` [Example 82B, 1-benzyl-4-fluoro-N-((1aR,2R,8bS)-4-methyl-3-oxo-1,1a,2,3,4,8b-hexahydrocyclopropa[d]pyrido[2,3-b]azepin-2-yl)-1H-pyrazole-3-carboxamide], the negative logarithm of the IC50 (pIC50) was under 5.52.

Take `O=C(N[C@H]1C(=O)Nc2c(F)cc(F)cc2[C@H]2C[C@H]21)c1nnc(Cc2ccccc2)[nH]1` [Example 83B, 5-benzyl-N-((1aR,2R,8bS)-5,7-difluoro-3-oxo-1,1a,2,3,4,8b-hexahydrobenzo[b]cyclopropa[d]azepin-2-yl)-4H-1,2,4-triazole-3-carboxamide]: the pIC50 is 5.00 to 6.00.

With `CN1C(=O)[C@@H](NC(=O)c2nc3cccc(-c4ccccc4)c3s2)COc2ccccc21` [Example 84, (S)—N-(5-methyl-4-oxo-2,3,4,5-tetrahydrobenzo[b][1,4]oxazepin-3-yl)-7-phenylbenzo[d]thiazole-2-carboxamide], the pIC50 is 6.00 to 10.00.

Take `CN1C(=O)[C@@H](NC(=O)c2nnc(Cc3ccccc3)s2)COc2cccnc21` [Example 85, (S)-5-benzyl-N-(5-methyl-4-oxo-2,3,4,5-tetrahydropyrido[3,2-b][1,4]oxazepin-3-yl)-1,3,4-thiadiazole-2-carboxamide]: the negative-log IC50 (pIC50) is 6.00 to 10.00.

Consider `CN1C(=O)[C@@H](NC(=O)c2ncc(Cc3ccccc3)s2)COc2cccnc21` [Example 86, (S)-5-benzyl-N-(5-methyl-4-oxo-2,3,4,5-tetrahydropyrido[3,2-b][1,4]oxazepin-3-yl)thiazole-2-carboxamide], for which the negative logarithm of the IC50 (pIC50) is 6.00 to 10.00.

As to `CN1C(=O)[C@@H](NC(=O)c2cn(C3(c4ccccc4)CC3)nn2)COc2ccccc21` [Example 87, (S)—N-(5-methyl-4-oxo-2,3,4,5-tetrahydrobenzo[b][1,4]oxazepin-3-yl)-1-(1-phenylcyclopropyl)-1H-1,2,3-triazole-4-carboxamide], the pIC50 was 6.00 to 10.00.

As to `CN1C(=O)[C@@H](NC(=O)c2cnc(C3(c4ccccc4)CC3)[nH]2)COc2ccccc21` [Example 88, (S)—N-(5-methyl-4-oxo-2,3,4,5-tetrahydrobenzo[b][1,4]oxazepin-3-yl)-2-(1-phenylcyclopropyl)-1H-imidazole-5-carboxamide], the negative logarithm of the IC50 (pIC50) is under 5.52.

`O=C(N[C@H]1C(=O)Nc2c(F)cc(F)cc2[C@H]2C[C@H]21)c1nnc(Cc2ccccc2)o1` [Example 89A, 5-benzyl-N-((1aR,2R,8bS)-5,7-difluoro-3-oxo-1,1a,2,3,4,8b-hexahydrobenzo[b]cyclopropa[d]azepin-2-yl)-1,3,4-oxadiazole-2-carboxamide]: the pIC50 was 5.00 to 6.00.

On to `O=C(N[C@@H]1C(=O)Nc2c(F)cc(F)cc2[C@@H]2C[C@H]12)c1nnc(Cc2ccccc2)o1` [Example 89B, 5-benzyl-N-((1aS,2S,8bR)-5,7-difluoro-3-oxo-1,1a,2,3,4,8b-hexahydrobenzo[b]cyclopropa[d]azepin-2-yl)-1,3,4-oxadiazole-2-carboxamide], for which the negative logarithm of the IC50 (pIC50) was 6.00 to 10.00.

With `O=C(N[C@H]1C(=O)Nc2c(F)cc(F)cc2[C@H]2C[C@H]21)c1cn(Cc2ccccc2)nn1` [Example 90A, 1-benzyl-N-((1aR,2R,8bS)-5,7-difluoro-3-oxo-1,1a,2,3,4,8b-hexahydrobenzo[b]cyclopropa[d]azepin-2-yl)-1H-1,2,3-triazole-4-carboxamide], the pIC50 was 5.00 to 6.00.

`O=C(N[C@@H]1C(=O)Nc2c(F)cc(F)cc2[C@@H]2C[C@H]12)c1cn(Cc2ccccc2)nn1` [Example 90B, 1-benzyl-N-((1aS,2S,8bR)-5,7-difluoro-3-oxo-1,1a,2,3,4,8b-hexahydrobenzo[b]cyclopropa[d]azepin-2-yl)-1H-1,2,3-triazole-4-carboxamide]: the negative logarithm of the IC50 (pIC50) is 6.00 to 10.00.

`O=C(N[C@H]1COc2cccnc2NC1=O)c1cc(C2(c3ccccc3)CC2)[nH]n1` [Example 91, (S)—N-(4-oxo-2,3,4,5-tetrahydropyrido[3,2-b][1,4]oxazepin-3-yl)-5-(1-phenylcyclopropyl)-1H-pyrazole-3-carboxamide]: the pIC50 was 6.00 to 10.00.

As to `[2H]C([2H])([2H])N1C(=O)[C@@H](NC(=O)c2cc(C3(n4nccn4)CC3)on2)CCc2cccnc21` [Example 207], the pIC50 was under 5.52.

Take `Cc1nc(C(=O)N[C@@H]2C(=O)N(C)c3nccnc3[C@@H]3C[C@H]23)cn1Cc1ccccc1` [Example 208]: the negative-log IC50 (pIC50) is 6.00 to 10.00.

For `CN1C(=O)[C@@H](NC(=O)c2nn(Cc3cocn3)cc2F)COc2cccnc21` [Example 209, (S)-4-fluoro-N-(5-methyl-4-oxo-2,3,4,5-tetrahydropyrido[3,2-b][1,4]oxazepin-3-yl)-1-(oxazol-4-ylmethyl)-1H-pyrazole-3-carboxamide], the pIC50 is 6.00 to 10.00.

Take `CN1C(=O)[C@@H](NC(=O)c2ncc(Cc3ccccn3)s2)COc2cccnc21` [Example 213, (S)—N-(5-methyl-4-oxo-2,3,4,5-tetrahydropyrido[3,2-b][1,4]oxazepin-3-yl)-5-(pyridin-2-ylmethyl)thiazole-2-carboxamide]: the negative logarithm of the IC50 (pIC50) was 6.00 to 10.00.

With `CN1C(=O)[C@@H](NC(=O)c2nn(Cc3ccc(F)cn3)cc2F)COc2ccccc21` [Example 214, (S)-4-fluoro-1-((5-fluoropyridin-2-yl)methyl)-N-(5-methyl-4-oxo-2,3,4,5-tetrahydrobenzo[b][1,4]oxazepin-3-yl)-1H-pyrazole-3-carboxamide], the negative logarithm of the IC50 (pIC50) is 6.00 to 10.00.

In the case of `CN1C(=O)[C@@H](NC(=O)c2noc(Cc3ccccc3)n2)COc2cccnc21` [Example 215, (S)-5-benzyl-N-(5-methyl-4-oxo-2,3,4,5-tetrahydropyrido[3,2-b][1,4]oxazepin-3-yl)-1,2,4-oxadiazole-3-carboxamide], the pIC50 was 6.00 to 10.00.
